# Measured values published in patent US20240148821A1, “PHARMACEUTICAL USE OF CYCLIC PEPTIDE COMPOUND” (CHUGAI SEIYAKU KABUSHIKI KAISHA, priority 2021, published 2024).
# Numbered stars: 1 amine (or outer) side, 2 acyl side, 3 side chain; on linkers, the order of the positions; unused ones are H or OH. Bridge positions count the residues as written; N and C are the ends. Square brackets hold non-standard residues; d marks the D form. Peptide text beside a SMILES is read from it. * marks the point of attachment. hPhe(3,5-F2-4-CF3) = N[C@@H](CCc1cc(F)c(C(F)(F)F)c(F)c1)C(=O)O; hPhe(3-Cl-4-CF3) = N[C@@H](CCc1ccc(C(F)(F)F)c(Cl)c1)C(=O)O; hPhe(3-F,4-CF3) = N[C@@H](CCc1ccc(C(F)(F)F)c(F)c1)C(=O)O; X21 = O=C([C@H](CCc1ccc(OC(F)(F)F)c(F)c1)N[*:1])[*:2]; NMePhe(4-CF3) = CN[C@@H](Cc1ccc(C(F)(F)F)cc1)C(=O)O; hPhe(4-CF3) = N[C@@H](CCc1ccc(C(F)(F)F)cc1)C(=O)O; X118 = O=C([C@H](CCc1c(F)cc(F)cc1F)N[*:1])[*:2]; NMePhe(4-Cl) = CN[C@@H](Cc1ccc(Cl)cc1)C(=O)O; NMePhe(2-Cl) = CN[C@@H](Cc1ccccc1Cl)C(=O)O; NMedβ3hAla = C[C@H](CC(=O)[*:2])N(C)[*:1]; hPhe(4-F) = N[C@@H](CCc1ccc(F)cc1)C(=O)O; NMeGly(cPent) = CN[C@H](C(=O)O)C1CCCC1; Phe(3-I) = N[C@@H](Cc1cccc(I)c1)C(=O)O; Pro(4,4-F2) = O=C(O)[C@@H]1CC(F)(F)CN1; NMeY = CN[C@@H](Cc1ccc(O)cc1)C(=O)O; NMeCha = CN[C@@H](CC1CCCCC1)C(=O)O; NMeChg = CN[C@H](C(=O)O)C1CCCCC1; NMeF = CN[C@@H](Cc1ccccc1)C(=O)O; NMeI = CC[C@H](C)[C@H](NC)C(=O)O; N(CH2CH2)2CF2 = FC1(F)CCN(*)CC1; NMeE = CN[C@@H](CCC(=O)O)C(=O)O; NMeD = CN[C@@H](CC(=O)O)C(=O)O; NMeL = CN[C@@H](CC(C)C)C(=O)O; NMeV = CN[C@H](C(=O)O)C(C)C; d(β3hA) = C[C@@H](N)CC(=O)O; NMeS = CN[C@@H](CO)C(=O)O; Morpholide = C1CN(*)CCO1; NMeA = CN[C@@H](C)C(=O)O; Nle = CCCC[C@H](N)C(=O)O; Piperidide = C1CCN(*)CC1; Pyrrolidide = C1CCN(*)C1; dNMeA = CN[C@H](C)C(=O)O; Ac5c = NC1(C(=O)O)CCCC1; Aze = O=C(O)[C@@H]1CCN1; Cyclobutyl = C1CC(*)C1; NEtG = CCNCC(=O)O; Sar = CNCC(=O)O
# Molecular target: protein-protein interaction between Kras and SOS1 (biotin-tagged human Kras loaded with GDP, His-tagged human SOS1) (Homo sapiens (Human), UniProt P01116, G12D)
# Experiment: Protein-protein interaction inhibition between Kras and SOS1 (KrasG12D-SOS PPI) using AlphaScreen;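 note: kras produced in E. coli, Ni-coupled donor beads and streptavidin acceptor beads, excitation 680 nm with emission detected at 520–620 nm via singlet oxygen transfer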
# Type: biochemical
# Conditions: AlphaScreen; biotin-tagged human Kras loaded with GDP, His-tagged human SOS1; read-out: KRAS G12D-SOS PPI IC50
row,Structure (SMILES),IC50 [nM]
1,"CCCC[C@@H]1NC(=O)[C@H](Cc2cccc(I)c2)NC(=O)CN(C)C(=O)[C@H](Cc2ccc(OC)cc2)N(C)C(=O)[C@@H]2CCN2C(=O)[C@H](C)N(C)C(=O)[C@H]([C@@H](C)CC)NC(=O)[C@H](CC(C)C)N(C)C(=O)C[C@@H](C(=O)N2CCCCC2)N(C)C(=O)[C@H](CC(C)C)NC(=O)[C@H](CCC(=O)N(C)C)N(C)C1=O [Compound 2110, 3-[(3S,6S,9S,13S,16S,19S,22S,25S,31S,34S)-22-butyl-25-[(3-iodophenyl)methyl]-9,16-diisobutyl-31-[(4-methoxyphenyl)methyl]-3,4,10,14,20,29,32-heptamethyl-6-[(1S)-1-methylpropyl]-2,5,8,11,15,18,21,24,27,30,33-undecaoxo-13-(piperidine-1-carbonyl)-1,4,7,10,14,17,20,23,26,29,32-undecazabicyclo[32.2.0]hexatriacontan-19-yl]-N,N-dimethyl-propanamide] ([NMeL]I[NMeA][Aze][NMeY](Me)[Sar][Phe(3-I)][Nle][NMeE](NMe2)L[NMeD]-Piperidide; lactam N-11)",9.8
2,"CC[C@H](C)[C@@H]1NC(=O)[C@H](CC(C)C)N(C)C(=O)C[C@@H](C(=O)N2CCCCC2)N(C)C(=O)[C@H](C(C)C)N(C)C(=O)C2(CCCC2)NC(=O)[C@@H]2CCCN2C(=O)[C@H](CCc2ccc(C(F)(F)F)c(F)c2)NC(=O)CN(C)C(=O)[C@H](CC2CCCCC2)N(C)C(=O)[C@@H]2CCN2C(=O)CN(C)C1=O [Compound 599] ([NMeL]I[Sar][Aze][NMeCha][Sar][hPhe(3-F,4-CF3)]P[Ac5c][NMeV][NMeD]-Piperidide; lactam N-11)",12
3,CC[C@H](C)[C@@H]1NC(=O)[C@H](C)N(C)C(=O)C[C@@H](C)NC(=O)[C@H](CC(C)C)N(C)C(=O)[C@H](Cc2ccccc2)N(C)C(=O)[C@H](CC(C)C)NC(=O)[C@H](CCc2c(F)cc(F)cc2F)NC(=O)CN(C)C(=O)[C@H](Cc2ccc(Cl)cc2)N(C)C(=O)CN(C)C(=O)CN(C)C1=O [Compound 2090] (cyclo(I[Sar][Sar][NMePhe(4-Cl)][Sar][X118]L[NMeF][NMeL][d(β3hA)][NMeA])),380
4,CC[C@H](C)[C@@H]1NC(=O)[C@H](COC2CCC2)N(C)C(=O)C[C@@H](C(=O)N2CCCCC2)N(C)C(=O)[C@H](C(C)C)N(C)C(=O)C2(CCCC2)NC(=O)[C@@H]2CCCN2C(=O)[C@H](CCc2ccc(C(F)(F)F)c(Cl)c2)NC(=O)CN(C)C(=O)[C@H](CC2CCCCC2)N(C)C(=O)[C@@H]2CCN2C(=O)[C@H](C)N(C)C1=O [Compound 755] ([NMeS](Cyclobutyl)I[NMeA][Aze][NMeCha][Sar][hPhe(3-Cl-4-CF3)]P[Ac5c][NMeV][NMeD]-Piperidide; lactam N-11),5.6
5,CC[C@H](C)[C@@H]1NC(=O)[C@H](C)N(C)C(=O)C[C@@H](C)NC(=O)[C@H](C2CCCC2)N(C)C(=O)C2(CCCC2)NC(=O)[C@@H]2CCCN2C(=O)[C@H](CCc2ccc(C(F)(F)F)c(Cl)c2)NC(=O)[C@@H](C)N(C)C(=O)[C@H](Cc2ccccc2Cl)N(C)C(=O)[C@@H]2CCN2C(=O)[C@H](C)N(C)C1=O [Compound 464] (cyclo([Ac5c][NMeGly(cPent)][d(β3hA)][NMeA]I[NMeA][Aze][NMePhe(2-Cl)][dNMeA][hPhe(3-Cl-4-CF3)]P)),130
6,CC[C@H](C)[C@@H]1NC(=O)[C@H](CC(C)C)N(C)C(=O)C[C@@H](C(=O)N2CCCCC2)N(C)C(=O)[C@H](C2CCCC2)N(C)C(=O)C2(CCCC2)NC(=O)[C@@H]2CCCN2C(=O)[C@H](CCc2ccc(OC(F)(F)F)c(F)c2)NC(=O)CN(C)C(=O)[C@H](CC2CCCCC2)N(C)C(=O)[C@@H]2CCN2C(=O)[C@H](C)N(C)C1=O [Compound 2067] ([NMeL]I[NMeA][Aze][NMeCha][Sar][X21]P[Ac5c][NMeGly(cPent)][NMeD]-Piperidide; lactam N-11 (inferred); C-terminus assumed),0.84
7,CC[C@H](C)[C@@H]1NC(=O)[C@H](CC(C)C)N(C)C(=O)C[C@@H](C(=O)N2CCCCC2)NC(=O)[C@H](C(C)C)N(C)C(=O)C2(CCCC2)NC(=O)[C@@H]2CCCN2C(=O)[C@H](CCc2ccc(C(F)(F)F)c(Cl)c2)NC(=O)CN(C)C(=O)[C@H](CC2CCCCC2)N(C)C(=O)[C@@H]2CCN2C(=O)[C@H](C)N(C)C1=O [Compound 1353] ([NMeL]I[NMeA][Aze][NMeCha][Sar][hPhe(3-Cl-4-CF3)]P[Ac5c][NMeV]D-Piperidide; lactam N-11),11
8,CC[C@H](C)[C@@H]1NC(=O)[C@H](CC(C)C)N(C)C(=O)C[C@@H](C(=O)N2CCCC2)N(C)C(=O)[C@H]([C@@H](C)CC)N(C)C(=O)C2(CCCC2)NC(=O)[C@@H]2CCCN2C(=O)[C@H](CCc2ccc(C(F)(F)F)c(Cl)c2)NC(=O)CN(CC)C(=O)[C@H](Cc2ccc(C(F)(F)F)cc2)N(C)C(=O)[C@@H]2CCN2C(=O)[C@H](C)N(C)C1=O [Compound 1159] ([NMeL]I[NMeA][Aze][NMePhe(4-CF3)][NEtG][hPhe(3-Cl-4-CF3)]P[Ac5c][NMeI][NMeD]-Pyrrolidide; lactam N-11),2.8
9,CC[C@H](C)[C@@H]1NC(=O)[C@H](CC(C)C)N(C)C(=O)C[C@@H](C(=O)N(C)C)NC(=O)[C@H](C2CCCC2)N(C)C(=O)C2(CCCC2)NC(=O)[C@@H]2CCCN2C(=O)[C@H](CCc2ccc(C(F)(F)F)c(Cl)c2)NC(=O)CN(C)C(=O)[C@H](CC2CCCCC2)N(C)C(=O)[C@@H]2CCN2C(=O)[C@H](C)N(C)C1=O [Compound 677] ([NMeL]I[NMeA][Aze][NMeCha][Sar][hPhe(3-Cl-4-CF3)]P[Ac5c][NMeGly(cPent)]D-NMe2; lactam N-11),4.1
10,"CC[C@H](C)[C@@H]1NC(=O)[C@H](CC(C)C)N(C)C(=O)C[C@@H](C)N(C)C(=O)[C@H](C2CCCC2)N(C)C(=O)C2(CCCC2)NC(=O)[C@@H]2CC(F)(F)CN2C(=O)[C@H](CCc2cc(F)c(C(F)(F)F)c(F)c2)NC(=O)CN(C)C(=O)[C@H](Cc2ccc(C(F)(F)F)cc2)N(C)C(=O)[C@@H]2CCN2C(=O)[C@H](C)N(C)C1=O [Compound 900] (cyclo([Ac5c][NMeGly(cPent)][NMedβ3hAla][NMeL]I[NMeA][Aze][NMePhe(4-CF3)][Sar][hPhe(3,5-F2-4-CF3)][Pro(4,4-F2)]))",0.84
11,"CC[C@H](C)[C@@H]1NC(=O)[C@H](CC(C)C)N(C)C(=O)C[C@@H](C)NC(=O)[C@H](C(C)C)N(C)C(=O)C2(CCCC2)NC(=O)[C@@H]2CCCN2C(=O)[C@H](CCc2ccc(C(F)(F)F)c(F)c2)NC(=O)CN(C)C(=O)[C@H](CC2CCCCC2)N(C)C(=O)[C@@H]2CCN2C(=O)[C@H](C)N(C)C1=O [Compound 952] (cyclo([Ac5c][NMeV][d(β3hA)][NMeL]I[NMeA][Aze][NMeCha][Sar][hPhe(3-F,4-CF3)]P))",120
12,CC[C@H](C)[C@@H]1NC(=O)[C@H](CC(C)C)N(C)C(=O)C[C@@H](C(=O)N2CCCCC2)N(C)C(=O)[C@H](C2CCCCC2)N(C)C(=O)C2(CCCC2)NC(=O)[C@@H]2CCCN2C(=O)[C@H](CCc2ccc(C(F)(F)F)c(Cl)c2)NC(=O)CN(C)C(=O)[C@H](CC2CCCCC2)N(C)C(=O)[C@@H]2CCN2C(=O)[C@H](C)N(C)C1=O [Compound 249] ([NMeL]I[NMeA][Aze][NMeCha][Sar][hPhe(3-Cl-4-CF3)]P[Ac5c][NMeChg][NMeD]-Piperidide; lactam N-11),1.6
13,CC[C@H](C)[C@@H]1NC(=O)[C@H](CC(C)C)N(C)C(=O)C[C@@H](C)NC(=O)[C@H](C(C)C)N(C)C(=O)C2(CCCC2)NC(=O)[C@H](CC(=O)N2CCC(F)(F)CC2)N(C)C(=O)[C@H](CCc2ccc(C(F)(F)F)c(Cl)c2)NC(=O)CN(C)C(=O)[C@H](CC2CCCCC2)N(C)C(=O)CN(C)C(=O)CN(C)C1=O [Compound 452] (cyclo([Ac5c][NMeV][d(β3hA)][NMeL]I[Sar][Sar][NMeCha][Sar][hPhe(3-Cl-4-CF3)][NMeD](N(CH2CH2)2CF2))),80
14,CC[C@H](C)[C@@H]1NC(=O)[C@H](C)N(C)C(=O)C[C@@H](C(=O)N2CCCCC2)N(C)C(=O)[C@H](C(C)C)N(C)C(=O)C2(CCCC2)NC(=O)[C@@H]2CCCN2C(=O)[C@H](CCc2ccc(F)cc2)NC(=O)CN(C)C(=O)[C@H](CC2CCCCC2)N(C)C(=O)[C@@H]2CCN2C(=O)[C@H](C)N(C)C1=O [Compound 860] ([NMeA]I[NMeA][Aze][NMeCha][Sar][hPhe(4-F)]P[Ac5c][NMeV][NMeD]-Piperidide; lactam N-11),210
15,CC[C@H](C)[C@@H]1NC(=O)[C@H](C)N(C)C(=O)C[C@@H](C(=O)N2CCOCC2)N(C)C(=O)[C@H](C(C)C)N(C)C(=O)C2(CCCC2)NC(=O)[C@H](Cc2ccccc2Cl)N(C)C(=O)[C@H](CCc2ccc(C(F)(F)F)c(Cl)c2)NC(=O)CN(C)C(=O)[C@H](CC2CCCCC2)N(C)C(=O)CN(C)C(=O)CN(C)C1=O [Compound 2020] ([NMeA]I[Sar][Sar][NMeCha][Sar][hPhe(3-Cl-4-CF3)][NMePhe(2-Cl)][Ac5c][NMeV][NMeD]-Morpholide; lactam N-11),270
16,CC[C@H](C)[C@@H]1NC(=O)[C@H](C)N(C)C(=O)C[C@@H](C)N(C)C(=O)[C@H](CC(C)C)N(C)C(=O)[C@H](Cc2ccccc2)N(C)C(=O)[C@H](CC(C)C)NC(=O)[C@H](CCc2ccc(C(F)(F)F)cc2)NC(=O)CN(C)C(=O)[C@H](Cc2ccc(Cl)cc2)N(C)C(=O)CN(C)C(=O)CN(C)C1=O [Compound 927] (cyclo(I[Sar][Sar][NMePhe(4-Cl)][Sar][hPhe(4-CF3)]L[NMeF][NMeL][NMedβ3hAla][NMeA])),23
17,CC(C)C[C@H]1C(=O)N[C@@H](C(C)C)C(=O)N(C)[C@@H](C)C(=O)N2CC[C@H]2C(=O)N(C)[C@@H](CC2CCCCC2)C(=O)N(C)CC(=O)N[C@@H](CCc2ccc(C(F)(F)F)c(Cl)c2)C(=O)N2CCC[C@H]2C(=O)NC2(CCCC2)C(=O)N(C)[C@@H](C(C)C)C(=O)N(C)[C@H](C(=O)N2CCCCC2)CC(=O)N1C [Compound 1791] ([NMeL]V[NMeA][Aze][NMeCha][Sar][hPhe(3-Cl-4-CF3)]P[Ac5c][NMeV][NMeD]-Piperidide; lactam N-11),3
